Data published in ChEMBL document CHEMBL5131393 (J Med Chem, 2021).

Legend:
[1] = system: TZM; test: Cytotoxicity against human TZM-bl cells assessed as reduction in cell viability measured after 3 days by XTT assay; assay type: functional; details: 72 h, time 3 day
[2] = target: Human immunodeficiency virus type 1 reverse transcriptase (Human immunodeficiency virus 1, UniProt Q72547); test: Inhibition of recombinant HIV-1 reverse transcriptase incubated for 2 hrs by colorimetric assay
[3] = system: Human immunodeficiency virus 1; test: Antiviral activity against HIV-1 pseudovirus infected in human TZM-bl cells preincubated with virus for 30 mins followed by cell infection and measured after 3 days by luciferase assay; assay type: functional, organism-based; details: Human immunodeficiency virus 1, TZM-bl
[4] = target: Human immunodeficiency virus type 1 reverse transcriptase (Human immunodeficiency virus 1) (UniProt Q72547); test: Potency index, ratio of test compound IC50 to NBD-14189 IC50 for inhibition of recombinant HIV-1 reverse transcriptase incubated for 2 hrs by colorimetric assay

Compound	CC50 [1]	IC50 [2]	EC50 [3]	Ratio IC50 [4]
NCc1cc(-c2ccc3c(c2)OCO3)[nH]c1C(=O)NC(CO)c1nc(S)cs1 (stereo not drawn)	142 µM	39.5 µM	4.3 µM	–
NC[C@H](NC(=O)c1ccc(-c2ccc(C(F)(F)F)cn2)[nH]1)c1nc(CO)cs1	124 µM	2.8 µM	0.3 µM	–
NC[C@H](NC(=O)c1ccc(-c2cc(F)c(Cl)c(F)c2)[nH]1)c1ncc(CO)s1	39.5 µM	8.4 µM	–	–
Cc1sc(C(CO)NC(=O)c2[nH]c(-c3ccc4c(c3)OCO4)cc2CN)nc1S (stereo not drawn)	146 µM	30.6 µM	2.3 µM	–
Cc1cc(-c2ccc(C(F)(F)F)cn2)[nH]c1C(=O)N[C@H](CN)c1nc(CO)cs1	85 µM	5 µM	–	–
Cc1nc([C@H](CN)NC(=O)c2ccc(-c3ccc(Cl)c(F)c3)[nH]2)sc1CO	40.5 µM	8.3 µM	–	–
Cc1ccc(-c2ccc(C(=O)N[C@H](CN)c3ncc(CO)s3)[nH]2)cc1F	38.8 µM	7.2 µM	0.45 µM	–
Cc1nc([C@@H](CN)NC(=O)c2ccc(-c3ccc(F)c(F)c3)[nH]2)sc1CO	84.1 µM	–	3.3 µM	–
NC[C@@H](NC(=O)c1ccc(-c2ccc(Cl)c(F)c2)[nH]1)c1ncc(CO)s1	33 µM	13.7 µM	0.57 µM	–
NC[C@@H](NC(=O)c1ccc(-c2ccc(C(F)(F)F)cn2)[nH]1)c1ncc(C(O)CO)s1 (stereo partly drawn)	> 113 µM	–	2.1 µM	–
CC1(C)CC(NC(=O)C(=O)Nc2ccc(Cl)cc2)CC(C)(C)N1	60 µM	> 200 µM	–	–
Cc1nc(C(CNC2CCC2)NC(=O)c2ccc(-c3ccc(Cl)cc3)[nH]2)sc1CO (single isomer, unassigned)	24 µM	43.4 µM	2.2 µM	31
NC[C@H](NC(=O)c1ccc(-c2ccc(C(F)(F)F)cc2)[nH]1)c1nc(CO)cs1	21.9 µM	1.5 µM	0.089 µM	–
CNCc1cc(-c2ccc3c(c2)OCO3)[nH]c1C(=O)NCc1nc(S)c(CO)s1	95.8 µM	–	2.7 µM	–
Cc1cc(-c2ccc(C(F)(F)F)cn2)[nH]c1C(=O)N[C@@H](CN)c1ncc(CO)s1	109 µM	–	–	2
